# Measured values from article PMC6835155, “Lessons from LIMK1 enzymology and their impact on inhibitor design” (Biochemical Journal, 2019).
# Where two headings read alike, the source gives them in different places.
# Experiments:
# [1] = biological target: T1, LIMK2KD (Homo sapiens, UniProt P53671); assay: Differential (dynamic) scanning fluorimetry (DSF) assay, LIMK2KD; type: binding; conditions: for ΔTm at 10 µM: read-out: TM Shift LIMK2 (K)
# T1 construct: The cDNA coding for LIMK2 residues 330 to 632 was PCR amplified; His6 (N, cleaved yes); made in house; host or cells: baculovirus; Sf9 for virus, TriEx insect cells for expression
# T1 sequence (P53671 330-632): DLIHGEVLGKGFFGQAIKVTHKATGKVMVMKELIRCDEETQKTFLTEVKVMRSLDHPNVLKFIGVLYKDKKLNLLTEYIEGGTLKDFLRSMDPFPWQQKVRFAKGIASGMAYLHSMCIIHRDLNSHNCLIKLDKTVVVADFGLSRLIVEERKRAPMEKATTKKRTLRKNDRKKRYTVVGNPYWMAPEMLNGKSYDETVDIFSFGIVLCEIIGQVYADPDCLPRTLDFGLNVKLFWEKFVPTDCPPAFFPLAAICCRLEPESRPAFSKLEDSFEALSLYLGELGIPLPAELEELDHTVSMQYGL
# [2] = biological target: T2, LIMK1KD (Homo sapiens, UniProt P53667); assay: Differential (dynamic) scanning fluorimetry (DSF) assay, LIMK1KD; type: binding; conditions: for ΔTm at 10 µM: read-out: TM Shift LIMK1 (K)
# T2 construct: His6 (N, cleaved yes); made in house; host or cells: baculovirus; Sf9 for virus, TriEx insect cells for expression
# T2 sequence (P53667 330-637): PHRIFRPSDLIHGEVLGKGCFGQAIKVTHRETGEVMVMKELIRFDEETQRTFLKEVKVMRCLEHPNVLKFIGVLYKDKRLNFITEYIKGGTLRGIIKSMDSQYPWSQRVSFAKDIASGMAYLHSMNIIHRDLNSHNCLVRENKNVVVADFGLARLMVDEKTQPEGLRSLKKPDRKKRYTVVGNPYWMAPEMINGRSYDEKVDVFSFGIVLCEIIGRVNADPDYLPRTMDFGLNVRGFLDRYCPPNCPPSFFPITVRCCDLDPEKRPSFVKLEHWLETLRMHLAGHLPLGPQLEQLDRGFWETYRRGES
# [3] = LIMK2KD, compound 10 µM, single shot
# [4] = 2 µM LIMK1KD, compound 10 µM, single shot
# [5] = LIMK2KD, compound 10 µM, single shot, 10 µM
SMILES,"ΔTm at 10 µM [1, 3]","ΔTm at 10 µM [2, 4]",also measured
Nc1nccc(Oc2ccc(NC(=O)c3c[nH]cc(-c4ccc(F)cc4)c3=O)cc2F)c1Cl [BMS-794833],2 °C,1.5 °C,–
NC(=O)Nc1sc(-c2ccc(F)cc2)cc1C(N)=O [TPCA-1],–,–,"TM Shift LIMK2 (K) [1, 3]: 3.6 K; TM Shift LIMK1 (K) [2, 4]: 2.8 K"
COc1cc(N2CCC(N)CC2)ccc1Nc1ncc(Cl)c(-c2c[nH]c3ccccc23)n1 [AZD3463],–,–,"TM Shift LIMK2 (K) [1, 3]: 3.1 K; TM Shift LIMK1 (K) [2, 4]: 2.5 K"
O=C1NC(=O)C(=Cc2ccc(-c3ccc(F)cc3)o2)S1 (stereo in doubt) [CAY10505],–,–,"TM Shift LIMK2 (K) [1, 3]: 2.3 K; TM Shift LIMK1 (K) [2, 4]: 0.7 K"
Cc1cc(CN2CCN(c3c(Br)cnc4nc(-c5ccc(N6CCN(C)CC6)cc5)[nH]c34)CC2)no1 [CCT137690],–,–,"TM Shift LIMK2 (K) [1, 3]: 3.5 K; TM Shift LIMK1 (K) [2, 4]: 3.4 K"
"CO[C@H]1C[C@@H]2CC[C@@H](C)[C@@](O)(O2)C(=O)C(=O)N2CCCC[C@H]2C(=O)O[C@H]([C@H](C)C[C@@H]2CC[C@@H](OC(=O)C(C)(CO)CO)[C@H](OC)C2)CC(=O)[C@H](C)/C=C(\C)[C@@H](O)[C@@H](OC)C(=O)[C@H](C)C[C@H](C)/C=C/C=C/C=C/1C [Temsirolimus (CCI-779, NSC 683864), Temsirolimus]",0 °C,-0.7 °C,–
COCCNCc1ccc(-c2cc3nccc(Oc4ccc(NC(=S)NC(=O)Cc5ccc(F)cc5)cc4F)c3s2)nc1 [MGCD-265],1.1 °C,3.6 °C,–
O=C(NC1CCNCC1)c1[nH]ncc1NC(=O)c1c(Cl)cccc1Cl [AT7519],1.3 °C,1.2 °C,–
CCn1c(=O)c(-c2cc[nH]n2)cc2c(C)nc(N)nc21 [SAR245409 (XL765)],–,–,"TM Shift LIMK2 (K) [1, 5]: 6.6 K; TM Shift LIMK1 (K) [2, 4]: 1.0 K"
Cc1cccc(-c2nn3c(c2-c2ccnc4ccc(C(N)=O)cc24)CCC3)n1 [Galunisertib],-0.5 °C,0.3 °C,–
Cc1cc(F)c(Nc2ncnc3cc(OCc4ccccc4)ccc23)cc1O.Cl [ZM 323881 HCl],–,–,"TM Shift LIMK2 (K) [1, 3]: 2.6 K; TM Shift LIMK1 (K) [2, 4]: 0.0 K"
C=CC(=O)Nc1cccc(Sc2nc(Nc3ccc(N4CCN(C)CC4)cc3)ncc2Cl)c1 [WZ8040],–,–,"TM Shift LIMK2 (K) [1, 3]: 5.2 K; TM Shift LIMK1 (K) [2, 4]: 3.1 K"
CC(C)(C)c1cnc(CSc2cnc(NC(=O)C3CCNCC3)s2)o1 [SNS-032 (BMS-387032)],-0.3 °C,0.1 °C,–
C#Cc1cccc(Nc2ncnc3cc4c(cc23)OCCOCCOCCO4)c1 [Icotinib],-0.6 °C,-0.2 °C,–
CN(c1ccccc1CNc1nc(Nc2ccc3c(c2)CC(=O)N3)ncc1C(F)(F)F)S(C)(=O)=O [PF 431396],–,–,"TM Shift LIMK2 (K) [1, 3]: 0.2 K; TM Shift LIMK1 (K) [2, 4]: 2.9 K"
C=CCc1ccc(O)c(-c2ccc(O)c(CC=C)c2)c1 [Honokiol],1.7 °C,0.9 °C,–
O=C1Nc2ccc(I)cc2/C1=C/c1cc(Br)c(O)c(Br)c1 [GW5074],–,–,"TM Shift LIMK2 (K) [1, 3]: 5.6 K; TM Shift LIMK1 (K) [2, 4]: 0.0 K"
CC1=C(C(=O)Nc2cc3cn[nH]c3cc2F)C(c2ccc(C(F)(F)F)cc2)CC(=O)N1 (stereo not shown) [GSK429286A],1.4 °C,0.5 °C,–
O=C1c2ccc(Nc3ccc(F)cc3F)cc2CCc2ccc(OC[C@H](O)CO)cc21 [Skepinone-L],-0.6 °C,-0.5 °C,–
C[S+]([O-])c1ccc(-c2nc(-c3ccncc3)c(-c3ccc(F)cc3)[nH]2)cc1 (stereo not shown) [SB203580],3.3 °C,1.3 °C,–
O=c1sn(-c2cccc3ccccc23)c(=O)n1Cc1ccccc1 [Tideglusib],3.9 °C,-0.5 °C,–

SMILES,"ΔTm at 10 µM [1, 3]","ΔTm at 10 µM [2, 4]",also measured
"Cc1ccc(NC(=O)c2ccc(CN3CCN(C)CC3)cc2)cc1Nc1nc(-c2cccnc2)cs1 [Masitinib (AB1010), Masitinib]",0 °C,0.4 °C,–
"Cn1cnc2c(F)c(Nc3ccc(Br)cc3Cl)c(C(=O)NOCCO)cc21 [Selumetinib (AZD6244), Selumetinib]",0.6 °C,0.1 °C,–
CCS(=O)(=O)Nc1ccc2c(c1)/C(=C(/Nc1ccc(CN3CCCCC3)cc1)c1ccccc1)C(=O)N2 [Hesperadin],1.2 °C,2.7 °C,–
Cc1[nH]c(/C=C2\C(=O)Nc3ccc(S(=O)(=O)N(C)c4cccc(Cl)c4)cc32)c(C)c1C(=O)N1CCN(C)CC1 [SU11274],-0.2 °C,1.4 °C,–
C=CC(=O)Nc1ccc2ncnc(Nc3ccc(OCc4cccc(F)c4)c(Cl)c3)c2c1 [AST-1306],0.1 °C,0.4 °C,–
O=C(NCc1cccc(O)c1)Nc1nc(-c2ccncc2)cs1 [RKI-1447],–,–,"TM Shift LIMK2 (K) [1, 3]: 0.8 K; TM Shift LIMK1 (K) [2, 4]: 1.4 K"
"CCOc1cc2ncc(C#N)c(Nc3ccc(OCc4ccccn4)c(Cl)c3)c2cc1NC(=O)/C=C/CN(C)C [Neratinib (HKI-272), Neratinib]",–,0.2 °C,ΔTm at 10 µM [1]: 1 °C
"COc1cc2nccc(Oc3ccc(NC(=O)NC4CC4)c(Cl)c3)c2cc1C(N)=O [Lenvatinib (E7080), Lenvatinib]",0.1 °C,0.7 °C,–
O=C(NCCCNc1nc(Nc2cccc(NC(=O)N3CCCC3)c2)ncc1I)c1cccs1 [BX-795],4.7 °C,5 °C,–
"C=CC(=O)Nc1cc2c(Nc3ccc(F)c(Cl)c3)ncnc2cc1OCCCN1CCOCC1 [Canertinib (CI-1033), Canertinib]",0.5 °C,0.9 °C,–
"C=CC(=O)N1CCC[C@@H](n2nc(-c3ccc(Oc4ccccc4)cc3)c3c(N)ncnc32)C1 [Ibrutinib (PCI-32765), Ibrutinib]",0.7 °C,2.4 °C,–
"N#C/C(=C\c1ccc(O)c(O)c1)C(=O)NCc1ccccc1 [AG-490 (Tyrphostin B42), Tyrphostin B42]",–,–,"TM Shift LIMK2 (K) [1, 3]: 0.9 K; TM Shift LIMK1 (K) [2, 4]: 0.7 K"
"CC1(C)CNc2cc(NC(=O)c3cccnc3NCc3ccncc3)ccc21 [Motesanib Diphosphate (AMG-706), Motesanib Diphosphate]",0.5 °C,0.6 °C,–
CN(C)c1ccc(-c2nc3ncc(Cl)c(N4CCN(CC(=O)Nc5nccs5)CC4)c3[nH]2)cc1 [CCT129202],–,–,"TM Shift LIMK2 (K) [1, 3]: 4.6 K; TM Shift LIMK1 (K) [2, 4]: 2.4 K"
Cc1c(CN2CCN(C(=O)[C@H](C)O)CC2)sc2c(N3CCOCC3)nc(-c3cnc(N)nc3)nc12 [Apitolisib],0.6 °C,1.6 °C,–
"CC(C)(C)c1cc(NC(=O)Nc2ccc(-c3cn4c(n3)sc3cc(OCCN5CCOCC5)ccc34)cc2)no1 [Quizartinib (AC220), Quizartinib]",1.3 °C,-1.4 °C,–
Cc1csc(-c2nnc(Nc3ccc(Oc4ncccc4-c4ccnc(N)n4)cc3)c3ccccc23)c1 [AMG-900],-2.1 °C,0.5 °C,–
Cc1c(NC(=O)OC[C@@H]2COCCN2)cn2ncnc(Nc3ccc4c(cnn4Cc4cccc(F)c4)c3)c12 [BMS-599626],–,0.7 °C,"TM Shift LIMK2 (K) [1, 5]: -0.4 K; TM Shift LIMK2 (K) ([1]; LIMK2KD, compound 10 µM, single shot, listed as AC480 (BMS-599626), 10 µM): 0.9 K"
Cc1cnc(Nc2ccc(OCCN3CCCC3)cc2)nc1Nc1cccc(S(=O)(=O)NC(C)(C)C)c1 [Fedratinib],1.4 °C,3.2 °C,–
CC(=O)Nc1nc(C)c(-c2ccc(Cl)c(S(=O)(=O)NCCO)c2)s1 [PIK-93],–,–,TM Shift LIMK2 (K) ([1]; 10 µM): 1.7 K; TM Shift LIMK1 (K) [2]: 1.0 K
"Cn1cnc2c(F)c(Nc3ccc(Br)cc3F)c(C(=O)NOCCO)cc21 [MEK162 (ARRY-162, ARRY-438162)]",2.1 °C,0.4 °C,–
